Tests used:
[1] = target: GDP-bound NRAS wild-type protein (Homo sapiens, UniProt P01111); assay: Binding to NRAS by surface plasmon resonance (SPR), Single Cycle Kinetics; conditions: for NRAS/KRAS (ratio of KD value for NRAS to KD value for KRAS) / NRAS/KRAS (ratio of KD value with respect to NRAS to KD value with respect to KRAS): GDP-bound NRAS wild-type vs GDP-bound KRAS wild-type
[2] = target: GDP-bound HRAS wild-type protein (Homo sapiens, UniProt P01112); assay: Binding to HRAS by surface plasmon resonance (SPR), Single Cycle Kinetics; conditions: for HRAS/KRAS (ratio of KD value for HRAS to KD value for KRAS) / HRAS/KRAS (ratio of KD value with respect to HRAS to KD value with respect to KRAS): GDP-bound HRAS wild-type vs GDP-bound KRAS wild-type
Sequence of GDP-bound HRAS wild-type protein (P01112 whole entry): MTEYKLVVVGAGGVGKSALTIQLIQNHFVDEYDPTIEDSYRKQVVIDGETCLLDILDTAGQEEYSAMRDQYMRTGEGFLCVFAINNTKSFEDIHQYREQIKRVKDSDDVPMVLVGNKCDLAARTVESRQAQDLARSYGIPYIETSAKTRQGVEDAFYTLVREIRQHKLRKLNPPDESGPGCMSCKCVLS

[3] = SPR, GDP-bound wild-type proteins

Sequence of GDP-bound NRAS wild-type protein (P01111 whole entry): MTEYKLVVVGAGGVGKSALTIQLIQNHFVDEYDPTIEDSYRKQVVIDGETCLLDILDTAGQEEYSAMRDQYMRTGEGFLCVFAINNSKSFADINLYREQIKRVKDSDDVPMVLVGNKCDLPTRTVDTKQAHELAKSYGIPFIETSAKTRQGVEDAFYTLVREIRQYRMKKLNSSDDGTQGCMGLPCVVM

CC[C@H](C)[C@@H]1NC(=O)[C@H](CC)N(C)C(=O)C[C@@H](C(=O)N(C)C)N(C)C(=O)[C@H](C2CCCC2)N(C)C(=O)C2(CCCC2)N(C)C(=O)[C@@H]2CCCN2C(=O)[C@H](CCc2cc(F)c(C(F)(F)F)c(F)c2)NC(=O)CN(C)C(=O)[C@H](Cc2ccc(C(F)(F)F)cc2)N2CC/C=C\C[C@@H](C2=O)N(C)C(=O)CN(C)C1=O [PP1805]
NRAS/KRAS (ratio of KD value for NRAS to KD value for KRAS) ([1]; KD ratio, SPR): A (a compound having 10 or more and less than 20 is denoted as A) | HRAS/KRAS (ratio of KD value for HRAS to KD value for KRAS) ([2]; KD ratio, SPR): A (a compound having 10 or more and less than 20 is denoted as A)

CCC(CC)[C@H]1C(=O)N(C)[C@H](C(=O)N(C)C)CC(=O)N(C)[C@@H](COC)C(=O)N[C@@H]([C@@H](C)CC)C(=O)N(C2CC2)CC(=O)N(C)[C@H]2C/C=C\CCN(C2=O)[C@@H](Cc2ccc(C(F)F)cc2)C(=O)N(C)CC(=O)N[C@@H](CCc2cc(F)c(C(F)(F)F)c(F)c2)C(=O)N2C[C@H](OC3CCCC3)C[C@H]2C(=O)NC2(CC(C)(C)C2)C(=O)N1C [PP2633]
NRAS/KRAS (ratio of KD value with respect to GDP-bound NRAS wild-type protein to KD value with respect to KRAS) ([1]; class symbols): AA (a compound having 20 or more is denoted as AA) | HRAS/KRAS (ratio of KD value with respect to GDP-bound HRAS wild-type protein to KD value with respect to KRAS) ([2]; class symbols): A (a compound having 10 or more and less than 20 is denoted as A)

CCC[C@H]1C(=O)N[C@@H]([C@@H](C)CC)C(=O)N(C2CC2)CC(=O)N(C)[C@H]2C/C=C\CCN(C2=O)[C@@H](Cc2ccc(C(F)(F)F)cc2)C(=O)N(C)CC(=O)N[C@@H](CCc2ccc(Cl)c(Cl)c2)C(=O)N2C[C@H](OCC)C[C@H]2C(=O)NC2(CC(C)(C)C2)C(=O)N(C)[C@@H](CC(C)(C)C)C(=O)N(C)[C@H](C(=O)N(C)C)CC(=O)N1C [PP2749]
NRAS/KRAS (ratio of KD value with respect to GDP-bound NRAS wild-type protein to KD value with respect to KRAS) ([1]; class symbols): AA (a compound having 20 or more is denoted as AA) | HRAS/KRAS (ratio of KD value with respect to GDP-bound HRAS wild-type protein to KD value with respect to KRAS) ([2]; class symbols): A (a compound having 10 or more and less than 20 is denoted as A)

CCO[C@@H]1C[C@H]2C(=O)NC3(CCC3)C(=O)N(C)[C@@H](C3CCCC3)C(=O)N(C)[C@H](C(=O)N3CCOCC3)CC(=O)N(C)[C@@H](CC(C)C)C(=O)N[C@@H]([C@@H](C)CC)C(=O)N(C)CC(=O)N(C)[C@H]3CCCCCN(C3=O)[C@@H](Cc3ccc(F)c(F)c3)C(=O)N(C)CC(=O)N[C@@H](CCc3cc(F)c(C(F)(F)F)c(F)c3)C(=O)N2C1 [PP0917]
NRAS/KRAS (ratio of KD value with respect to NRAS to KD value with respect to KRAS) ([1]; KD ratio, SPR): B (a compound having 3 or more and less than 10 is denoted as B) | HRAS/KRAS (ratio of KD value with respect to HRAS to KD value with respect to KRAS) ([2]; KD ratio, SPR): B (a compound having 3 or more and less than 10 is denoted as B)

CCO[C@@H]1C[C@H]2C(=O)NC3(CCC3)C(=O)N(C)[C@@H](C3CCCC3)C(=O)N(C)[C@H](C(=O)N(C)C)CC(=O)N(C)[C@@H](CC)C(=O)N[C@@H]([C@@H](C)CC)C(=O)N3CC[C@H]3C(=O)N(C)[C@H]3CC(C)=CCN(C3=O)[C@@H](Cc3ccc(C(F)(F)F)cc3)C(=O)N(C)CC(=O)N[C@@H](CCc3cc(F)c(C(F)(F)F)c(F)c3)C(=O)N2C1 [PP1035]
NRAS/KRAS (ratio of KD value with respect to NRAS to KD value with respect to KRAS) ([1]; KD ratio, SPR): C (A compound having a KD ratio of 0.1 or more and less than 3 is denoted as C) | HRAS/KRAS (ratio of KD value with respect to HRAS to KD value with respect to KRAS) ([2]; KD ratio, SPR): C (A compound having a KD ratio of 0.1 or more and less than 3 is denoted as C)

CCO[C@@H]1C[C@H]2C(=O)NC3(CCCC3)C(=O)N(C)[C@@H](C3CCCC3)C(=O)N(C)[C@H](C(=O)N3CCOCC3)CC(=O)N(C)[C@@H](CC(C)C)C(=O)N[C@@H]([C@@H](C)CC)C(=O)N(C)CC(=O)N(C)[C@H]3CCCCCN(C3=O)[C@@H](Cc3ccc(F)cc3)C(=O)N(C)CC(=O)N[C@@H](CCc3ccc(C(F)(F)F)c(Cl)c3)C(=O)N2C1 [PP0965]
NRAS/KRAS (ratio of KD value with respect to NRAS to KD value with respect to KRAS) ([1]; KD ratio, SPR): B (a compound having 3 or more and less than 10 is denoted as B) | HRAS/KRAS (ratio of KD value with respect to HRAS to KD value with respect to KRAS) ([2]; KD ratio, SPR): B (a compound having 3 or more and less than 10 is denoted as B)

CCC[C@H]1C(=O)N[C@@H](C2CCCCC2)C(=O)N(C)CC(=O)N(C)[C@H]2C/C=C\CCN(C2=O)[C@@H](Cc2ccc(C(F)(F)F)cc2)C(=O)N(C)CC(=O)N[C@@H](CCc2ccc(C(F)(F)F)c(Cl)c2)C(=O)N2C[C@H](OCC)C[C@H]2C(=O)NC2(CC(C)(C)C2)C(=O)N(C)[C@@H]([C@@H](C)CC)C(=O)N(C)[C@H](C(=O)N(C)C)CC(=O)N1C [PP3015]
NRAS/KRAS (ratio of KD value with respect to GDP-bound NRAS wild-type protein to KD value with respect to KRAS) [1, 3]: AA (a compound having 20 or more is denoted as AA) | HRAS/KRAS (ratio of KD value with respect to GDP-bound HRAS wild-type protein to KD value with respect to KRAS) [2, 3]: A (a compound having 10 or more and less than 20 is denoted as A)

C#CC[C@H]1C(=O)N[C@@H]([C@@H](C)CC)C(=O)N(C)CC(=O)N(C)[C@H]2C/C=C\CCN(C2=O)[C@@H](Cc2ccc(C(F)(F)F)cc2)C(=O)N(C)CC(=O)N[C@@H](CCc2cc(F)c(C(F)(F)F)c(F)c2)C(=O)N2C[C@H](OCC)C[C@H]2C(=O)NC2(CC(F)(F)C2)C(=O)N(C)[C@@H](C2CCCC2)C(=O)N(C)[C@H](C(=O)N(C)CCC)CC(=O)N1C [PP1737]
NRAS/KRAS (ratio of KD value for NRAS to KD value for KRAS) ([1]; KD ratio, SPR): A (a compound having 10 or more and less than 20 is denoted as A) | HRAS/KRAS (ratio of KD value for HRAS to KD value for KRAS) ([2]; KD ratio, SPR): A (a compound having 10 or more and less than 20 is denoted as A)

CCO[C@@H]1C[C@H]2C(=O)NC3(CCC3)C(=O)N(C)[C@@H](C3CCCC3)C(=O)N(C)[C@H](C(=O)N3CCOCC3)CC(=O)N(C)[C@@H](CC)C(=O)N[C@@H]([C@@H](C)CC)C(=O)N3CC[C@H]3C(=O)N(C)[C@H]3C[C@@H](C)CCN(C3=O)[C@@H](Cc3ccc(C(F)(F)F)cc3)C(=O)N(C)CC(=O)N[C@@H](CCc3cc(F)c(C(F)(F)F)c(F)c3)C(=O)N2C1 [PP1028]
NRAS/KRAS (ratio of KD value with respect to NRAS to KD value with respect to KRAS) ([1]; KD ratio, SPR): B (a compound having 3 or more and less than 10 is denoted as B) | HRAS/KRAS (ratio of KD value with respect to HRAS to KD value with respect to KRAS) ([2]; KD ratio, SPR): B (a compound having 3 or more and less than 10 is denoted as B)

CCC[C@H]1C(=O)N[C@@H]([C@@H](C)CC)C(=O)N2CCC[C@H]2C(=O)N(C)[C@H]2C/C=C\CCN(C2=O)[C@@H](Cc2ccc(C)cc2)C(=O)N(C)CC(=O)N[C@@H](CCc2ccc(C(F)(F)F)c(OC)c2)C(=O)N2C[C@H](OCC)C[C@H]2C(=O)N(C)C2(CCC2)C(=O)N(C)[C@@H](C2CCCC2)C(=O)N(C)[C@H](C(=O)N2CCCCC2)CC(=O)N1C [PP3100, (1S,4S,10S,13S,17S,20S,26S,28R,32S,38S,42Z)-20-cyclopentyl-28-ethoxy-32-[2-[3-methoxy-4-(trifluoromethyl)phenyl]ethyl]-2,14,18,21,24,36-hexamethyl-10-[(1S)-1-methylpropyl]-17-(piperidine-1-carbonyl)-13-propyl-38-(p-tolylmethyl)spiro[2,8,11,14,18,21,24,30,33,36,39-undecazatetracyclo[37.5.1.0^4,8.0^26,30]pentatetracont-42-ene-23,1′-cyclobutane]-3,9,12,15,19,22,25,31,34,37,45-undecone]
NRAS/KRAS (ratio of KD value with respect to GDP-bound NRAS wild-type protein to KD value with respect to KRAS) [1, 3]: A (a compound having 10 or more and less than 20 is denoted as A) | HRAS/KRAS (ratio of KD value with respect to GDP-bound HRAS wild-type protein to KD value with respect to KRAS) [2, 3]: B (a compound having 3 or more and less than 10 is denoted as B)

CCCN(C)C(=O)[C@@H]1CC(=O)N(C)[C@@H](C2CC2)C(=O)N[C@@H]([C@@H](C)CC)C(=O)N(C)CC(=O)N(C)[C@H]2C/C=C\CCN(C2=O)[C@@H](Cc2ccc(C(F)(F)F)cc2)C(=O)N(C)CC(=O)N[C@@H](CCc2cc(F)c(C(F)(F)F)c(F)c2)C(=O)N2C[C@@H](C)C[C@H]2C(=O)NC2(CCC2)C(=O)N(C)[C@@H](C2CCCC2)C(=O)N1C [PP2081]
NRAS/KRAS (ratio of KD value with respect to NRAS to KD value with respect to KRAS) ([1]; SPR): A (a compound having 10 or more and less than 20 is denoted as A) | HRAS/KRAS (ratio of KD value with respect to HRAS to KD value with respect to KRAS) ([2]; SPR): A (a compound having 10 or more and less than 20 is denoted as A)

CCO[C@@H]1C[C@H]2C(=O)NC3(CC(C)(C)C3)C(=O)N(C)[C@@H](C3CCCC3)C(=O)N(C)[C@H](C(=O)N(C)CC)CC(=O)N(C)[C@@H](COC)C(=O)N[C@@H]([C@@H](C)CC)C(=O)N(C)CC(=O)N(C)[C@H]3C/C=C\CCN(C3=O)[C@@H](Cc3ccc(C(F)(F)F)cc3)C(=O)N(C)CC(=O)N[C@@H](CCc3ccc(C(F)(F)F)c(OC)c3)C(=O)N2C1 [PP1679]
NRAS/KRAS (ratio of KD value for NRAS to KD value for KRAS) ([1]; KD ratio, SPR): A (a compound having 10 or more and less than 20 is denoted as A) | HRAS/KRAS (ratio of KD value for HRAS to KD value for KRAS) ([2]; KD ratio, SPR): A (a compound having 10 or more and less than 20 is denoted as A)

C=CCN1CC(=O)N(C)[C@H]2C/C=C\CCN(C2=O)[C@@H](Cc2ccc(C(F)(F)F)cc2)C(=O)N(C)CC(=O)N[C@@H](CCc2ccc(C(F)(F)F)c(OC)c2)C(=O)N2C[C@H](OCC)C[C@H]2C(=O)NC2(CC(C)(C)C2)C(=O)N(C)[C@@H](C2CCCC2)C(=O)N(C)[C@H](C(=O)N(C)C)CC(=O)N(C)[C@@H](CCC)C(=O)N[C@@H]([C@@H](C)CC)C1=O [PP2106]
NRAS/KRAS (ratio of KD value with respect to NRAS to KD value with respect to KRAS) ([1]; SPR): A (a compound having 10 or more and less than 20 is denoted as A) | HRAS/KRAS (ratio of KD value with respect to HRAS to KD value with respect to KRAS) ([2]; SPR): A (a compound having 10 or more and less than 20 is denoted as A)

CC[C@H](C)[C@@H]1NC(=O)[C@H](COC)N(C)C(=O)C[C@@H](C(=O)N(C)C)N(C)C(=O)[C@H](C2CCCC2)N(C)C(=O)C2(CC(C)(C)C2)NC(=O)[C@@H]2C[C@@H](OC3CCCC3)CN2C(=O)[C@H](CCc2ccc(Cl)c(Cl)c2)NC(=O)CN(C)C(=O)[C@H](Cc2ccc(C)cc2)N2CC/C=C\C[C@@H](C2=O)N(C)C(=O)CN(C2CC2)C1=O [PP2628]
NRAS/KRAS (ratio of KD value with respect to GDP-bound NRAS wild-type protein to KD value with respect to KRAS) ([1]; class symbols): A (a compound having 10 or more and less than 20 is denoted as A) | HRAS/KRAS (ratio of KD value with respect to GDP-bound HRAS wild-type protein to KD value with respect to KRAS) ([2]; class symbols): A (a compound having 10 or more and less than 20 is denoted as A)
